Experimental data published in patent US20250186627A1, “RADIOLABELED COMPOUNDS TARGETING THE PROSTATE-SPECIFIC MEMBRANE ANTIGEN” (PROVINCIAL HEALTH SERVICES AUTHORITY, priority 2022, published 2025).

Test system: NRG-mice bearing LNCaP tumors
Experiment: Biodistribution (and PET/SPECT imaging) in NRG-mice bearing LNCaP tumors
Type: in vivo
Conditions: Avg
In short: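 LNCaP xenografts (~10 million cells, left dorsal flank) grown 4-6 weeks to 200-600 mm^3 in NRG mice. Tail-vein injection of 4-6 MBq ^68Ga or 18.5 MBq ^177Lu tracer under isoflurane; CT then 10-min static PET or 1-h SPECT. Biodistribution by gamma counting of weighed organs, expressed as %ID/g.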

## COc1ccc(CCCC(=O)NCC(=O)NC(CCCCNC(=O)CN2CCN(CC(=O)[O-])CCN(CC(=O)[O-])CCN(CC(=O)[O-])CC2)CC(=O)NCC2CCC(C(=O)NC(Cc3c4ccccc4cc4ccccc34)C(=O)NCCCCC(NC(=O)NC(CC(F)C(=O)O)C(=O)O)C(=O)O)CC2)cc1.[177Lu+3] (stereo not drawn) [^177Lu-CCZ02019]
3 h p.i.
  Biodistribution: Adrenal gland: 2.79 % ID/g
  Biodistribution: Blood: 11.22 % ID/g
  Biodistribution: Bone: 1.03 % ID/g
  Biodistribution: Brain: 0.18 % ID/g
  Biodistribution: Fat: 1.91 % ID/g
  Biodistribution: Heart: 2.52 % ID/g
  Biodistribution: Intestine: 0.98 % ID/g
  Biodistribution: LNCaP tumor: 50.23 % ID/g
  Biodistribution: Lacrimal gland: 0.39 % ID/g
  Biodistribution: Liver: 2.18 % ID/g
  Biodistribution: Lungs: 5.22 % ID/g
  Biodistribution: Muscle: 0.87 % ID/g
  Biodistribution: Pancreas: 1.07 % ID/g
  Biodistribution: Salivary gland: 1.92 % ID/g
  Biodistribution: Seminal gland: 0.59 % ID/g
  Biodistribution: Spleen: 1.53 % ID/g
  Biodistribution: Stomach: 0.58 % ID/g
  Biodistribution: Testes: 2.55 % ID/g
  Biodistribution: Thyroid: 2.44 % ID/g
  Biodistribution: Urine: 180.95 % ID/g
  Biodistribution: kidney: 10.42 % ID/g
24 h p.i.
  Biodistribution: Adrenal gland: 0.54 % ID/g
  Biodistribution: Blood: 0.70 % ID/g
  Biodistribution: Bone: 0.18 % ID/g
  Biodistribution: Brain: 0.03 % ID/g
  Biodistribution: Fat: 0.33 % ID/g
  Biodistribution: Heart: 0.37 % ID/g
  Biodistribution: Intestine: 0.23 % ID/g
  Biodistribution: LNCaP tumor: 55.39 % ID/g
  Biodistribution: Lacrimal gland: 0.00 % ID/g
  Biodistribution: Liver: 0.48 % ID/g
  Biodistribution: Lungs: 0.65 % ID/g
  Biodistribution: Muscle: 0.11 % ID/g
  Biodistribution: Pancreas: 0.17 % ID/g
  Biodistribution: Salivary gland: 0.56 % ID/g
  Biodistribution: Seminal gland: 0.23 % ID/g
  Biodistribution: Spleen: 0.37 % ID/g
  Biodistribution: Stomach: 0.73 % ID/g
  Biodistribution: Testes: 0.37 % ID/g
  Biodistribution: Thyroid: 0.52 % ID/g
  Biodistribution: Urine: 8.42 % ID/g
  Biodistribution: kidney: 4.02 % ID/g
72 h p.i.
  Biodistribution: Adrenal gland: 0.53 % ID/g
  Biodistribution: Blood: 0.13 % ID/g
  Biodistribution: Bone: 0.05 % ID/g
  Biodistribution: Brain: 0.01 % ID/g
  Biodistribution: Fat: 0.16 % ID/g
  Biodistribution: Heart: 0.18 % ID/g
  Biodistribution: Intestine: 0.08 % ID/g
  Biodistribution: LNCaP tumor: 45.10 % ID/g
  Biodistribution: Lacrimal gland: 0.00 % ID/g
  Biodistribution: Liver: 0.29 % ID/g
  Biodistribution: Lungs: 0.41 % ID/g
  Biodistribution: Muscle: 0.04 % ID/g
  Biodistribution: Pancreas: 0.09 % ID/g
  Biodistribution: Salivary gland: 0.27 % ID/g
  Biodistribution: Seminal gland: 0.06 % ID/g
  Biodistribution: Spleen: 0.45 % ID/g
  Biodistribution: Stomach: 0.15 % ID/g
  Biodistribution: Testes: 0.39 % ID/g
  Biodistribution: Thyroid: 0.37 % ID/g
  Biodistribution: Urine: 1.12 % ID/g
  Biodistribution: kidney: 1.84 % ID/g
144 h p.i.
  Biodistribution: Adrenal gland: 0.31 % ID/g
  Biodistribution: Blood: 0.04 % ID/g
  Biodistribution: Bone: 0.04 % ID/g
  Biodistribution: Brain: 0.01 % ID/g
  Biodistribution: Fat: 0.11 % ID/g
  Biodistribution: Heart: 0.13 % ID/g
  Biodistribution: Intestine: 0.03 % ID/g
  Biodistribution: LNCaP tumor: 40.77 % ID/g
  Biodistribution: Lacrimal gland: 0.00 % ID/g
  Biodistribution: Liver: 0.19 % ID/g
  Biodistribution: Lungs: 0.93 % ID/g
  Biodistribution: Muscle: 0.03 % ID/g
  Biodistribution: Pancreas: 0.06 % ID/g
  Biodistribution: Salivary gland: 0.34 % ID/g
  Biodistribution: Seminal gland: 0.03 % ID/g
  Biodistribution: Spleen: 0.51 % ID/g
  Biodistribution: Stomach: 0.03 % ID/g
  Biodistribution: Testes: 0.33 % ID/g
  Biodistribution: Thyroid: 0.28 % ID/g
  Biodistribution: Urine: 0.84 % ID/g
  Biodistribution: kidney: 1.10 % ID/g
240 h p.i.
  Biodistribution: Adrenal gland: 0.11 % ID/g
  Biodistribution: Blood: 0.01 % ID/g
  Biodistribution: Bone: 0.00 % ID/g
  Biodistribution: Brain: 0.00 % ID/g
  Biodistribution: Fat: 0.06 % ID/g
  Biodistribution: Heart: 0.05 % ID/g
  Biodistribution: Intestine: 0.02 % ID/g
  Biodistribution: LNCaP tumor: 25.30 % ID/g
  Biodistribution: Lacrimal gland: 0.00 % ID/g
  Biodistribution: Liver: 0.15 % ID/g
  Biodistribution: Lungs: 0.09 % ID/g
  Biodistribution: Muscle: 0.01 % ID/g
  Biodistribution: Pancreas: 0.03 % ID/g
  Biodistribution: Salivary gland: 0.10 % ID/g
  Biodistribution: Seminal gland: 0.01 % ID/g
  Biodistribution: Spleen: 0.46 % ID/g
  Biodistribution: Stomach: 0.02 % ID/g
  Biodistribution: Testes: 0.16 % ID/g
  Biodistribution: Thyroid: 0.12 % ID/g
  Biodistribution: Urine: 0.37 % ID/g
  Biodistribution: kidney: 0.52 % ID/g
